By IC50 is commonly meant the point on the concentration scale where inhibition reaches its midpoint. A high value points to weaker potency in that assay. A word on the inhibition: it is the drop in the measured response relative to a control, in per cent.

In brackets after ≈: the same amount, converted by molar mass. Where only a bound is given, the exact number is not on record here.

Assay type in all cases: cell-based
Series [1] can be described thus: MTT cytotoxicity evaluation on MCF-7 cells. The conditions noted are these: human, range 0~100 μM. As to the method: (§1) Cells were incubated at 37 °C in an incubator with 5% CO2. Cell viability was determined using the MTT assay. Briefly, MCF-7 cell lines were seeded at 5000–8000 cells/well in 96-well plates. […] Following a continuous 24 h of incubation, the culture medium was replaced by 90 μL fresh culture medium, and 10 μL MTT solution was added.

Series [2] has as its system R. solani. The series is described as follows: microbe, parasite or virus in culture. The following applies: Rhizoctonia solani, read-out: The Inhibition Rate (%) R. solani.
Series [3] concerns F. graminearum. The series can be described thus: microbe, parasite or virus in culture. The following applies: Fusarium graminearum; for inhibition at 50 µg/mL: read-out: The Inhibition Rate (%) F. graminearum.
For series [4], the system named is E. turcicum. The series can be described thus: Mycelial growth inhibition test in vitro (E. turcicum). The following applies: Exserohilum turcicum; 50 μg/mL, mean ± SD of three replicates; read-out: The Inhibition Rate (%) E. turcicum.
The subject of series [5] is B. cinerea. The series can be described thus: Mycelial growth inhibition test in vitro (B. cinerea). The following applies: Botrytis cinerea; 50 μg/mL, mean ± SD of three replicates; read-out: The Inhibition Rate (%) B. cinerea. As to the method:
(§2) The antifungal activity of the target compound was tested by the mycelial growth inhibition rate method. The compounds were detected at a concentration of 50 μg/mL, and carbendazim was used as the positive control. The antifungal activity was carried out according to literature reports. After drilling the mycelium (3 mm), it was inoculated into the PDA medium containing compounds, and the Petri dish was put into the incubator at 25 °C for 12-48 h; then, the colony diameter was measured with 50 index vernier caliper by the cross method, and the data were recorded. […] • A: The average diameter of the blank medium colony. • B: Diameter of mushroom cake (3 mm). • C: The average diameter of the colonies in the medium containing compound.

For series [6], the system named is C. capsica. The series can be described thus: Mycelial growth inhibition test in vitro (C. capsica). The following applies: Colletotrichum; 50 μg/mL, mean ± SD of three replicates; read-out: The Inhibition Rate (%) C. capsica. As to the method: as §2, with “compound. […] The PDA medium containing different concentrations of the compound was prepared by the two-fold dilution method, the final concentration of the compound in the medium was adjusted to 0-100.00 μg/mL, and three parallel samples were set for each concentration. […] The toxicity regression equation of the tested compound was obtained, taking the logarithm of compound concentration (lgc) as the independent variable (x) and the probability value of inhibition rate as the dependent variable (y), and the EC50 value of each tested compound was calculated.” for “compound.”

The test system of series [7] is MCF-7 cell line. The series is described as follows: MTT cytotoxicity evaluation on MCF-7 cells. The following applies: 100 μM, 24 h. As to the method: as §1

`COc1ccc(-c2noc(-c3ccc(C(C)(C)C)cc3)n2)cc1OC` [Compound 4n, 5-(4-(tert-Butyl)phenyl)-3-(3,4-dimethoxyphenyl)-1,2,4-oxadiazole] came in with a 50% inhibitory concentration (IC50) at 24 h in series [1] of at least 100 µM. Besides, the inhibition at 50 µg/mL was below 10% in series [2]; below 10% in series [3]; 29.8 ± 1.26% in series [4]; below 10% in series [5]; below 10% in series [6].

Take `COc1ccc(-c2noc(-c3ccc(Cl)cc3)n2)cc1` [Compound 4j, 5-(4-Chlorophenyl)-3-(4-methoxyphenyl)-1,2,4-oxadiazole]: the inhibition at 50 µg/mL in series [2], in series [3], in series [4], in series [5] and in series [6] was below 10% each time.

On to `Oc1cc(O)cc(-c2nc(-c3ccccc3)no2)c1` [Compound 4e, 5-(3-Phenyl-1,2,4-oxadiazol-5-yl) benzene-1,3-diol], for which the half-inhibitory concentration (IC50) at 24 h in series [1] was at least 100 µM. For the same compound, the inhibition at 50 µg/mL in series [2] is 16.6 ± 1.47%; in series [3] it was 30.1 ± 4.51%; in series [4], 26.5 ± 3.09%; in series [5] it was below 10%; in series [6] it was 18.8 ± 3.1%.

As to `COc1ccc(-c2nc(-c3ccccc3)no2)cc1OC` [Compound 4b, 5-(3,4-Dimethoxyphenyl)-3-phenyl-1,2,4-oxadiazole], the inhibition at 50 µg/mL in series [2] was 18.7 ± 5.82%; in series [3], 23.8 ± 7.22%; in series [4], 60.4 ± 1.68%; in series [5], below 10%; in series [6] it was below 10%.

On to `COc1cc(-c2noc(-c3ccc(C(C)(C)C)cc3)n2)cc(OC)c1OC` [Compound 4u, 5-(4-(tert-Butyl)phenyl)-3-(3,4,5-trimethoxyphenyl)-1,2,4-oxadiazole], for which the IC50 at 24 h in series [1] is at least 100 µM. In addition, the inhibition at 50 µg/mL in series [2], in series [3], in series [4], in series [5] and in series [6] was below 10% each time.

As for `COc1cc(-c2noc(-c3cccc(O)c3)n2)cc(OC)c1OC` [Compound 4v, 3-(3-(3,4,5-Trimethoxyphenyl)-1,2,4-oxadiazol-5-yl) phenol], the inhibition at 50 µg/mL is below 10% in series [2]; 26.1 ± 9.47% in series [3]; 15.5 ± 3.53% in series [4]; below 10% in series [5]; below 10% in series [6].

In the case of `Oc1cccc(-c2nc(-c3ccccc3)no2)c1` [Compound 4d, 3-(3-Phenyl-1,2,4-oxadiazol-5-yl) phenol], in series [1], the IC50 at 24 h is at least 100 µM. For the same compound, the inhibition at 50 µg/mL in series [2] worked out at 18.6 ± 2.71%; in series [3], 40.2 ± 1.5%; in series [4] it was 46.1 ± 0.74%; in series [5] it was 36.8 ± 9.53%; in series [6], 22.3 ± 2.97%.

As to `COc1ccc(-c2noc(/C=C/c3ccccc3)n2)cc1` [Compound 5d, (E)-3-(4-Methoxyphenyl)-5-styryl-1,2,4-oxadiazole], the inhibition at 50 µg/mL in series [2] is below 10%; in series [3], 19 ± 7.4%; in series [4], 19.2 ± 2.39%; in series [5], 21.7 ± 6.82%.

`COc1ccc(-c2noc(-c3ccc(Cl)cc3)n2)cc1OC` [Compound 4m, 5-(4-Chlorophenyl)-3-(3,4-dimethoxyphenyl)-1,2,4-oxadiazole]: the inhibition at 50 µg/mL in series [2] was 11.7 ± 5.11%; in series [3], below 10%; in series [4], 15.2 ± 0.77%.

For `FC(F)(F)c1ccc(-c2nc(-c3ccccc3)no2)cc1` [Compound 4h, 3-Phenyl-5-(4-(trifluoromethyl)phenyl)-1,2,4-oxadiazole], the inhibition at 50 µg/mL in series [2] was below 10%; in series [3], 29 ± 8.54%; in series [4], below 10%; in series [5], below 10%; in series [6], below 10%.

`COc1ccc(-c2nc(-c3ccc(OC)c(OC)c3)no2)cc1` [Compound 4w, 3-(3,4-Dimethoxyphenyl)-5-(4-methoxyphenyl)-1,2,4-oxadiazole]: the inhibition at 50 µg/mL in series [2], in series [3], in series [4], in series [5] and in series [6] was below 10% throughout.

With `CC(C)(C)c1ccc(-c2nc(-c3ccccc3)no2)cc1` [Compound 4c, 5-(4-(tert-Butyl)phenyl)-3-phenyl-1,2,4-oxadiazole], the inhibition at 50 µg/mL in series [2] is 10.7 ± 3.54%; in series [3] it was 33.5 ± 3.88%; in series [4], 30.1 ± 1.95%; in series [5], below 10%; in series [6] it was below 10%.

`Oc1cc(-c2nc(-c3ccccc3)no2)cc(O)c1O` [Compound 4g, 5-(3-Phenyl-1,2,4-oxadiazol-5-yl) benzene-1,2,3-triol]: the inhibition at 50 µg/mL in series [2] is 39.9 ± 3.44%; in series [3] it was 56.9 ± 6.74%; in series [4], 38.7 ± 1%; in series [5], below 10%; in series [6], 47.6 ± 1.05%. Also, in series [3] (read-out: EC50 (μg/mL) F. graminearum), the EC50 worked out at 80.5 µg/mL (≈ 298 µM).

On to `O=[N+]([O-])c1ccc(-c2nc(-c3ccccc3)no2)cc1` [Compound 4i, 5-(4-Nitrophenyl)-3-phenyl-1,2,4-oxadiazole], for which, in series [7], the “cell survival rate of MCF-7 cells” value was “significant cell proliferation”. For the same compound, the inhibition at 50 µg/mL in series [2], in series [3], in series [4] and in series [5] was below 10% each time.

`Clc1ccc(-c2nc(-c3ccccc3)no2)cc1` [Compound 4a, 5-(4-Chlorophenyl)-3-phenyl-1,2,4-oxadiazole]: the inhibition at 50 µg/mL in series [2] was below 10%; in series [3] it was 19.1 ± 7.15%; in series [4], 17.5 ± 2.68%; in series [5], below 10%.

`Clc1ccc(/C=C/c2nc(-c3ccccc3)no2)cc1` [Compound 5c, (E)-5-(4-Chlorostyryl)-3-phenyl-1,2,4-oxadiazole]: in series [7], the “cell survival rate of MCF-7 cells” value was “significant cell proliferation”. Besides, the inhibition at 50 µg/mL in series [2], in series [3], in series [4] and in series [5] was below 10% throughout.

`COc1cc(/C=C/c2nc(-c3ccccc3)no2)cc(OC)c1OC` [Compound 5b, (E)-3-Phenyl-5-(3,4,5-trimethoxystyryl)-1,2,4-oxadiazole]: the 50% inhibitory concentration (IC50) at 24 h in series [1] was at least 100 µM. For the same compound, the inhibition at 50 µg/mL amounted to 21.2 ± 2.78% in series [2]; 36.1 ± 1.67% in series [3]; 31.8 ± 1.44% in series [4]; 30.2 ± 6.4% in series [5]; 20.6 ± 4.48% in series [6].

On to `COc1cc(-c2noc(-c3ccc(Cl)cc3)n2)cc(OC)c1OC` [Compound 4s, 5-(4-Chlorophenyl)-3-(3,4,5-trimethoxyphenyl)-1,2,4-oxadiazole], for which the inhibition at 50 µg/mL in series [2], in series [3], in series [4], in series [5] and in series [6] was below 10% in each case.

For `COc1ccc(-c2noc(-c3ccc(OC)c(OC)c3)n2)cc1` [Compound 4k, 5-(3,4-Dimethoxyphenyl)-3-(4-methoxyphenyl)-1,2,4-oxadiazole], the inhibition at 50 µg/mL in series [2] is 22.6 ± 8.85%; in series [3] it was 21.7 ± 2.53%; in series [4], below 10%; in series [5] it was below 10%; in series [6], below 10%.

Consider `C(=C\c1nc(-c2ccccc2)no1)/c1ccccc1` [Compound 5a, (E)-3-Phenyl-5-styryl-1,2,4-oxadiazole], for which the inhibition at 50 µg/mL in series [2] was 14.5 ± 6.32%; in series [3], below 10%; in series [4], 21.1 ± 3.85%; in series [5] it was below 10%.

With `COc1ccc(-c2noc(-c3cccc(O)c3)n2)cc1OC` [Compound 4o, 3-(3-(3,4-Dimethoxyphenyl)-1,2,4-oxadiazol-5-yl)phenol], the inhibition at 50 µg/mL in series [2] was 24.4 ± 1.65%; in series [3], 55.1 ± 2.99%; in series [4] it was 28.1 ± 1.65%; in series [5] it was below 10%; in series [6], 20.8 ± 0.59%.

These data come from paper PMC12029309, “Synthesis and Antifungal Activity of 1,2,4-Oxadiazole Derivatives” (Molecules, 2025).
